Test results: US8541670B2, “Compositions and methods for inhibiting tumor cell growth” (priority 2007, dated 2013)
Where no end group is shown, it is not given here.

Experiments:
AKT [1] = assay: AKT activity in cultured neurons treated with PKA inhibitor or activator; assay type: cell-based
Protocol: To evaluate the significance of the AKT-PKAc interaction, kinase inhibitors were employed. […] Thus, cultured neurons were treated with the selective PKA inhibitor, H-89, and the potent PKA activator, forskolin, and AKT activity was analyzed.

N2a cells [2] = assay: Trypan blue staining, live and dead cell count; assay type: cell-based
Source text: Therefore, in addition to capturing live images, cells were stained with trypan blue at different time intervals following treatment with ZaTa and counted by a light microscope using a hemocytometer.

AKT [3] = molecular target: T1, AKT (Homo sapiens, UniProt P31749); assay: Screen of PKAc peptide library for effect on catalytic activity of AKT; assay type: biochemical; details: single peptide
T1 construct: purchased Upstate Biotechnology
T1 sequence (P31749 whole entry): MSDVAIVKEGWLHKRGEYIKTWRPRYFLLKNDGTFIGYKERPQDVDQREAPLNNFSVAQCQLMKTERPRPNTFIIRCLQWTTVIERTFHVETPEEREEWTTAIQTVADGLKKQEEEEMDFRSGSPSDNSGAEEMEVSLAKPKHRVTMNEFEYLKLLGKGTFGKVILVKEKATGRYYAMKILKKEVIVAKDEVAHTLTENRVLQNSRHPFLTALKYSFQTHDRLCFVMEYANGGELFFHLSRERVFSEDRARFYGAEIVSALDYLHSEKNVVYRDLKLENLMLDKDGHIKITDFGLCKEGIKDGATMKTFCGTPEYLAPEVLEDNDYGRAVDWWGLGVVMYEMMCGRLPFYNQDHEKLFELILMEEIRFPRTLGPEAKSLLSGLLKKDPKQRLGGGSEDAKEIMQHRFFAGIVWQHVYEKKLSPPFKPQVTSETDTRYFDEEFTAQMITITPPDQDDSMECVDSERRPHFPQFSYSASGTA
Source text: Unlike PKAc and protein kinase C (PKC) for which potent inhibitor peptides are readily available and widely used, inhibitors of AKT are generally lacking (Brazil, et al. (2004) supra). […] Moreover, optimal substrate motifs for AKT have been modified to design AKT inhibitors (Obata, et al. (2000) J. Biol. Chem. 275:36108-36115). Because the full-length PKAc protein inhibited the catalytic activity of AKT, a peptide library based on the human (GENBANK Accession No. NP_002721; SEQ ID NO:1) and bovine (GENBANK Accession No. CAA47627; SEQ ID NO:2) PKAc protein sequences was designed and synthesized. This library contained 96 overlapping peptides (Table 1), covering the full-length protein sequence of human and bovine PKAc from the N- to C-terminus. The library was extensively screened to identify fragments of PKAc that mediated the inhibitory effect of PKAc toward AKT.
These peptides included peptide 49 (SEQ ID NO:56), 53 (SEQ ID NO:60), 62 (SEQ ID NO:69), 63 (SEQ ID NO:70) and 64 (SEQ ID NO:71). Combinations of consecutive overlapping peptide fragments were also assayed for an effect on the catalytic activity of AKT. A significant inhibitory effect was also observed when peptides 25 through 36 were combined (i.e., SEQ ID NOs:32-43), peptides 37 through 48 were combined (i.e., SEQ ID NOs:44-55), peptides 49 through 60 were combined (i.e., SEQ ID NOs:56-67), and peptides 61 through 72 were combined (i.e., SEQ ID NOs:68-79).

AKT1 = molecular target: T2, AKT1 (Homo sapiens, UniProt P31749); assay: AKT1 radioactive in vitro kinase assay (32P incorporation into Ser-21 GSK-3 substrate peptide); assay type: biochemical; details: compared with ZaTa
T2 construct: purchased Upstate Biotechnology
T2 sequence (P31749 whole entry): as above
Protocol: AKT1 catalytic activity was determined by measuring the incorporation of −^32P into Ser-21 glycogen synthase kinase 3[…] (GSK-3[…]) substrate peptide. Histogram bars represent the number of −^32P counts per minute (CPM). Reactions were carried out in the presence of different concentrations of the ZaTa peptide (SEQ ID NO:60), as well as a control peptide (SEQ ID NO:59) which shares 11 out of 17 amino acids in common with the N-terminus of the ZaTa peptide.
Of particular interest with regard to inhibitory activity toward AKT was peptide […](SEQ ID NO:60) which flanked the Thr-197 phosphorylation site of PKAc. […] Furthermore, the inhibitory effect of ZaTa peptide was compared with an adjacent peptide ([…] SEQ ID NO:59), a peptide that overlaps with the 11 N-terminal amino acid residues of the ZaTa peptide and carries the Thr-197 phosphorylation site. In this assay, the level of incorporation of −^32 P into Ser-21 GSK-3[…] substrate peptide was used as the measure of AKT1 in vitro catalytic activity.
For non-radioactive kinase assays, typically 25 ng of active AKT1 or PKAc (Upstate Biotechnology) was used in a kinase assay reaction buffer (20 mM MOPS, pH 7.2, 25 mM […]-glycerophosphate, 5 mM EGTA, 1 mM Na3VO4, 1 mM dithiothreitol, 75 mM MgCl2, and 0.5 mM ATP) in the presence of either 1 μL of Ser-9 GSK-3 GST fusion protein (Cell Signaling), or recombinant DARPP-32 (10 μg). For the radioactive kinase assays, typically 25 ng of kinase was added to the kinase assays reaction buffer (20 mM MOPS, pH 7.2, 25 mM […]-glycerophosphate, 5 mM EGTA, 1 mM Na3VO4, 1 mM dithiothreitol) containing 30 μM of dephosphorylated Ser-21 GSK-3 substrate peptide (Upstate Biotechnology) in the presence of different concentrations of inhibitor. Reactions were initiated by adding [−^32P] ATP (10 μCi/reaction) which was diluted in the reaction buffer, plus 500 μM cold ATP and 75 mM MgCl2. Kinase reactions were incubated 30° C. for 10-20 minutes. A 5 μL aliquot of the reaction was transferred to phosphocellulose paper, washed for 30 minutes with dH2O, and CPM of samples read in scintillation counter.

olfactory bulb cells = assay: In vivo TUNEL in olfactory bulb after repeated intranasal delivery; design: species or system C57BL/6 mice; details: repeated intranasal treatment for three days
Source text: To confirm the apoptotic inducing effect of ZaTa in vivo, ZaTa was delivered to the mouse brain via the nasal cavity, a minimally invasive procedure compared to the stereotactic surgery. Intranasal delivery of compounds into the brain is an efficient and effective way for local delivery of compounds, without the need for passing the blood brain barriers, the major obstacle for studying the effect of different inhibitors/activators in CNS (Vyas, et al. (2005) Curr. Drug Deliv. 2:165-175; Hrafnkelsdottir, et al. (2005) Biol. Pharm. Bull. 28:1038-1042). […] This was visualized by double labeling of the brain sections with fluorescent TUNEL and a nuclear marker.
Depending on the intended use, a pharmaceutical composition of the invention can be administered by any suitable means, including parenteral injection (such as intraperitoneal, subcutaneous, intratumoral or intramuscular injection), orally or by topical application (e.g., transdermal or via a mucosal surface). By pharmaceutically acceptable formulation is meant, a composition or formulation that allows for the effective distribution of the nucleic acid molecules of the instant invention in the physical location most suitable for their desired activity. […]

N2a cells [4] = assay: MTT cell proliferation assay; assay type: cell-based; details: 10 μM, 48-hour treatment (FIG. 3, series 1)
Protocol: In histogram series 2, treatments were removed after 24 hours and cells were incubated for another 24 hours without treatment. […] Mitochondrial activity (reflecting cellular growth and viability) in the presence of ZaTa and ZaTa variants (ZaTa T10D, ZaTa T8D, ZaTa T14R, and ZaTa Y17T) was evaluated by measuring the optical density (“OD”) at 490 nm on a plate reader. ZaTa T10D refers to a ZaTa polypeptide variant in which the Threonine (T) at position 10 of SEQ ID NO: 60 is substituted by an Aspartic Acid (D). ZaTa T8D refers to a ZaTa polypeptide variant in which the Threonine (T) at position 8 of SEQ ID NO: 60 is substituted by an Aspartic Acid (D). ZaTa T14R refers to a ZaTa polypeptide variant in which the Threonine (T) at position 14 of SEQ ID NO: 60 is substituted by an Arginine (R). ZaTa Y17T refers to a ZaTa polypeptide variant in which the Tyrosine (Y) at position 17 of SEQ ID NO: 60 is substituted by an Threonine (T).
AKT affects a network that positively regulates G1/S cell cycle progression through several mechanisms that involve the expression and subcellular localization of the CDK inhibitor p27^Kip1 (Blain and Massague (2002) Nat. Med. 8:1076-1078; Liang, et al. (2002) supra; Shin, et al. (2002) supra; Viglietto, et al. (2002) supra). Based on these studies, the effect of ZaTa peptide on cell proliferation was assessed. […] Capturing live images of cultured N2a cells in the presence of different concentrations of the ZaTa peptide confirmed an obvious reduction in the number of dividing cells.
Based on the importance of the C-terminal arm of ZaTa for its inhibitory action on AKT, it was determined whether the free hydroxyl groups on residues Thr-8, Thr-10 (equivalent to Thr-197 in full-length PKAc), Thr-14 and Tyr-17 were important for the biological activity of this peptide. Mutants of ZaTa peptide were synthesized by replacing Thr-8 or Thr-10 residues with Asp (ZaTa^T8D and ZaTa^T10D, respectively) as an amino acid with a negatively charged side chain. Mutants of ZaTa with the hydrophilic positively charged amino acid Arg at either position Thr-14 or Tyr-17 (ZaTa^T14R and ZaTa^Y17R, respectively) were also synthesized. […] The inhibitory effect of ZaTa peptide on cell proliferation was reversible, to a large extent, after the removal of ZaTa treatment (FIG. 3, histogram series 2).
Cells (5×10^3) were incubated in 96-well plates in the presence of different concentrations of the ZaTa peptide, control peptide or DMSO as vehicle. Media was removed at different time intervals and replaced with media containing MTT (5 mg/mL), and incubated for one hour at 37° C. […] The activity of the mitochondria, reflecting cellular growth and viability, was evaluated by measuring the optical density at 490 nm on a plate reader.

[5] = counted at time points from 12 to 72 hours

O=S(=O)(NCCNC/C=C/c1ccc(Br)cc1)c1cccc2cnccc12 [Peptide H-89]
activity of AKT, phosphorylation level at Thr-308 and Ser-473 (AKT [1]): dose-dependent increase

AKRVKGRDWTLCGTPEY [ZaTa^T8D]
increase in the number of dead cells (N2a cells [2]; [5]): not seen

AKRVKGRTWDLCGTPEY [ZaTa^T10D]
increase in the number of dead cells (N2a cells [2]; [5]): not seen

AKRVKGRTWTLCGRPEY [ZaTa^T14R]
increase in the number of dead cells (N2a cells [2]; only after 72 hours): significant increase in the number of dead cells

D-Q-Q-G-Y-I-Q-V-T-D-F-G-F-A-K (DQQGYIQVTDFGFAK; Peptide_SEQ ID NO:56) [Peptide 49]
inhibitory effect toward AKT, individual library peptides (AKT [3]): significant inhibitory effects

G-V-L-I-Y-E-M-A-A-G-Y-P-P-F-F (GVLIYEMAAGYPPFF; Peptide_SEQ ID NO:70) [Peptide 63]
inhibitory effect toward AKT, individual library peptides (AKT [3]): significant inhibitory effects

GFAKRVKGRTWTL [control peptide, peptide overlapping the 11 N-terminal residues of ZaTa, reference compound]
inhibition of AKT1 catalytic activity (AKT1): not able to inhibit AKT1 | number of apoptotic cells in olfactory bulb (olfactory bulb cells): no change in the number of apoptotic cells

W-A-L-G-V-L-I-Y-E-M-A-A-G-Y (WALGVLIYEMAAGY; Peptide_SEQ ID NO:69) [Peptide 62]
inhibitory effect toward AKT, individual library peptides (AKT [3]): significant inhibitory effects

Y-E-M-A-A-G-Y-P-P-F-F-A (YEMAAGYPPFFA; Peptide_SEQ ID NO:71) [Peptide 64]
inhibitory effect toward AKT, individual library peptides (AKT [3]): significant inhibitory effects

ZaTa^Y17R: ZaTa mutant with Arg at position Tyr-17 (AKRVKGRTWTLCGTPER; Peptide_SEQ ID NO:60)
effect of mutation on inhibition of cell proliferation relative to ZaTa (N2a cells [4]): considerably augmented ZaTa activity | increase in the number of dead cells (N2a cells [2]; only after 72 hours): significant increase in the number of dead cells
